Laboratory results reported in patent publication US4684664A, “Derivatives of β-(4-isocyano-1,2,3,4-diepoxycyclopentyl) acrylic acid” (Kureha Kagaku Kogyo Kabushiki Kaisha, priority 1984, dated 1987).
In brackets after ≈: the same amount, converted by molar mass. Like-named read-outs stand apart in the source and are kept apart here.

Columns and labels:
Format in all cases: cell-based
[1] = tested on: Enterobacter aerogenes ATCC 13048; experiment: Antibacterial activity, agar-dilution MIC, organism No. 23; conditions: Klebsiella aerogenes
Outline: (§1)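 Endpoint: MIC in μg/ml of culture medium. Method: agar dilution. Medium: bouillon agar.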

[2] = tested on: Staphylococcus aureus Terajima; experiment: Antibacterial activity, agar-dilution MIC, organism No. 2; conditions: Staphylococcus aureus, read-out: Minimum Inhibitory Concentration
Outline: as §1

[3] = tested on: Staphylococcus aureus MS 353; experiment: Antibacterial activity, agar-dilution MIC, organism No. 3; conditions: Staphylococcus aureus
Outline: as §1

[4] = tested on: Proteus rettgeri IFO 3850; experiment: Antibacterial activity, agar-dilution MIC, organism No. 22; conditions: Providencia rettgeri
Outline: as §1

[5] = tested on: Pseudomonas aeruginosa PAO 1; experiment: Antibacterial activity, agar-dilution MIC, organism No. 17; conditions: Pseudomonas aeruginosa
Outline: as §1

[6] = tested on: Salmonella paratyphi-A 1015; experiment: Antibacterial activity, agar-dilution MIC, organism No. 10; conditions: Salmonella enterica, PARATYPHI, read-out: Minimum Inhibitory Concentration
Outline: as §1

[7] = tested on: Staphylococcus aureus FDA 209PJc-1; experiment: Antibacterial activity, agar-dilution MIC, organism No. 1; conditions: Staphylococcus aureus
Outline: as §1

[8] = tested on: Proteus morganii IFO 3848; experiment: Antibacterial activity, agar-dilution MIC, organism No. 18; conditions: Morganella morganii
Outline: as §1

[9] = tested on: Micrococcus luteus ATCC 9341; experiment: Antibacterial activity, agar-dilution MIC, organism No. 25; conditions: Micrococcus luteus
Outline: as §1

[10] = tested on: Bacillus subtilis ATCC 6633; experiment: Antibacterial activity, agar-dilution MIC, organism No. 14; conditions: Bacillus subtilis
Outline: as §1

[11] = tested on: Pseudomonas aeruginosa NCTC 10490; experiment: Antibacterial activity, agar-dilution MIC, organism No. 16; conditions: Pseudomonas aeruginosa
Outline: as §1

[12] = tested on: Salmonella typhimurium IID 971; experiment: Antibacterial activity, agar-dilution MIC, organism No. 8; conditions: Salmonella enterica, read-out: Minimum Inhibitory Concentration
Outline: as §1

Proteus vulgaris HX-19 = experiment: Antibacterial activity, agar-dilution MIC, organism No. 21; conditions: Proteus vulgaris
Outline: as §1

[13] = tested on: Serratia marcescens IAM 1184; experiment: Antibacterial activity, agar-dilution MIC, organism No. 13; conditions: Serratia marcescens
Source text: Agar-dilution method was used for determination of the antibacterial activity and antifungal activity while using bouillon-agar culture medium, and the minimum inhibitory concentration of the specimen was expressed by μg/ml of the culture medium.

[14] = tested on: Escherichia coli K12 C600 IAM 1264; experiment: Antibacterial activity, agar-dilution MIC, organism No. 6; conditions: Escherichia coli
Outline: as §1

[15] = tested on: Salmonella shottmuelleri 8006; experiment: Antibacterial activity, agar-dilution MIC, organism No. 11
Outline: as §1

[16] = tested on: Salmonella enteritidis G 14; experiment: Antibacterial activity, agar-dilution MIC, organism No. 12; conditions: Salmonella enterica, ENTERITIDIS, read-out: Minimum Inhibitory Concentration
Outline: as §1

[17] = tested on: Proteus mirabilis IFO 3849; experiment: Antibacterial activity, agar-dilution MIC, organism No. 19; conditions: Proteus mirabilis
Outline: as §1

Proteus vulgaris OX-19 = experiment: Antibacterial activity, agar-dilution MIC, organism No. 20; conditions: Proteus vulgaris
Outline: as §1

[18] = tested on: Streptococcus pyogenes Cook; experiment: Antibacterial activity, agar-dilution MIC, organism No. 4; conditions: Streptococcus pyogenes, read-out: Minimum Inhibitory Concentration
Outline: as §1

Enterobacter cloacae 963 = experiment: Antibacterial activity, agar-dilution MIC, organism No. 24
Outline: as §1

[19] = tested on: Pseudomonas aeruginosa IFO 3445; experiment: Antibacterial activity, agar-dilution MIC, organism No. 15; conditions: Pseudomonas aeruginosa
Outline: as §1

[20] = tested on: Candida albicans IAM 4905; experiment: Antifungal activity, agar-dilution MIC, organism No. 29; conditions: Candida albicans
Outline: as §1

[21] = tested on: Escherichia coli NIHJ-JC-2; experiment: Antibacterial activity, agar-dilution MIC, organism No. 5; conditions: Escherichia coli
Outline: as §1

[22] = tested on: Aspergillus niger IFO 6342; experiment: Antifungal activity, agar-dilution MIC, organism No. 30; conditions: Aspergillus niger
Outline: as §1

Salmonella typhi 901 = experiment: Antibacterial activity, agar-dilution MIC, organism No. 9; conditions: Salmonella enterica, TYPHI, read-out: Minimum Inhibitory Concentration
Outline: as §1

[23] = tested on: Klebsiella pneumoniae PCI-602; experiment: Antibacterial activity, agar-dilution MIC, organism No. 7; conditions: Klebsiella pneumoniae
Outline: as §1

[C-]#[N+]C12CC3(/C=C/C(=O)Nc4nnc(C)s4)OC3C1O2 (stereo not drawn) [compound 71]
MIC ([1]; ATCC13048, Organism No. 23, bouillon-agar, read-out: Minimum Inhibitory Concentration): > 200 µg/mL | MIC ([2]; Organism No. 2, bouillon-agar): 12.5 µg/mL (≈ 43.1 µM) | MIC ([3]; MS353, Organism No. 3, bouillon-agar, read-out: Minimum Inhibitory Concentration): 6.25 µg/mL (≈ 21.5 µM) | MIC ([4]; IFO3850, Organism No. 22, bouillon-agar, read-out: Minimum Inhibitory Concentration): > 200 µg/mL | MIC ([5]; PAO1, Organism No. 17, bouillon-agar, read-out: Minimum Inhibitory Concentration): > 200 µg/mL | MIC [6]: 12.5 µg/mL (≈ 43.1 µM) | MIC ([7]; FDA209PJC1, Organism No. 1, bouillon-agar, read-out: Minimum Inhibitory Concentration): 1.56 µg/mL (≈ 5.37 µM) | MIC ([8]; IFO3848, Organism No. 18, bouillon-agar, read-out: Minimum Inhibitory Concentration): 12.5 µg/mL (≈ 43.1 µM) | MIC ([9]; ATCC9341, Organism No. 25, bouillon-agar, read-out: Minimum Inhibitory Concentration): > 200 µg/mL | MIC ([10]; ATCC6633, Organism No. 14, bouillon-agar, read-out: Minimum Inhibitory Concentration): > 200 µg/mL | MIC ([11]; NCTC10490, Organism No. 16, bouillon-agar, read-out: Minimum Inhibitory Concentration): > 200 µg/mL | MIC ([12]; Organism No. 8, bouillon-agar): > 200 µg/mL | MIC (Proteus vulgaris HX-19; HX19, Organism No. 21, bouillon-agar, read-out: Minimum Inhibitory Concentration): 6.25 µg/mL (≈ 21.5 µM) | MIC ([13]; IAM1184, Organism No. 13, bouillon-agar, read-out: Minimum Inhibitory Concentration): > 200 µg/mL | MIC ([14]; IAM1264, Organism No. 6, bouillon-agar, read-out: Minimum Inhibitory Concentration): > 200 µg/mL | MIC ([15]; Salmonella, 8006, Organism No. 11, bouillon-agar, read-out: Minimum Inhibitory Concentration): 100 µg/mL (≈ 344 µM) | MIC ([16]; Organism No. 12, bouillon-agar): 200 µg/mL (≈ 689 µM) | MIC ([17]; IFO3849, Organism No. 19, bouillon-agar, read-out: Minimum Inhibitory Concentration): > 200 µg/mL | MIC (Proteus vulgaris OX-19; OX19, Organism No. 20, bouillon-agar, read-out: Minimum Inhibitory Concentration): 6.25 µg/mL (≈ 21.5 µM) | MIC ([18]; Organism No. 4, bouillon-agar): 12.5 µg/mL (≈ 43.1 µM) | MIC (Enterobacter cloacae 963; Enterobacter cloacae, 963, Organism No. 24, bouillon-agar, read-out: Minimum Inhibitory Concentration): > 200 µg/mL | MIC ([19]; IFO3445, Organism No. 15, bouillon-agar, read-out: Minimum Inhibitory Concentration): > 200 µg/mL | MIC ([20]; IAM4905, Organism No. 29, bouillon-agar, read-out: Minimum Inhibitory Concentration): 12.5 µg/mL (≈ 43.1 µM) | MIC ([21]; NIHJJC2, Organism No. 5, bouillon-agar, read-out: Minimum Inhibitory Concentration): > 200 µg/mL | MIC ([22]; IFO6342, Organism No. 30, bouillon-agar, read-out: Minimum Inhibitory Concentration): 200 µg/mL (≈ 689 µM) | MIC (Salmonella typhi 901): 25 µg/mL (≈ 86.1 µM) | MIC ([23]; PCI602, Organism No. 7, bouillon-agar, read-out: Minimum Inhibitory Concentration): > 200 µg/mL

[C-]#[N+]C12CC3(/C=C/C(=O)Nc4ccncc4)OC3C1O2 (stereo not drawn) [compound 72]
MIC ([1]; ATCC13048, read-out: Minimum Inhibitory Concentration): > 200 µg/mL | MIC [2]: 6.25 µg/mL (≈ 23.2 µM) | MIC ([3]; MS353, read-out: Minimum Inhibitory Concentration): 3.13 µg/mL (≈ 11.6 µM) | MIC ([4]; IFO3850, read-out: Minimum Inhibitory Concentration): 200 µg/mL (≈ 743 µM) | MIC ([5]; PAO1, read-out: Minimum Inhibitory Concentration): > 200 µg/mL | MIC [6]: 3.13 µg/mL (≈ 11.6 µM) | MIC ([7]; FDA209PJC1, read-out: Minimum Inhibitory Concentration): 1.56 µg/mL (≈ 5.79 µM) | MIC ([8]; IFO3848, read-out: Minimum Inhibitory Concentration): 6.25 µg/mL (≈ 23.2 µM) | MIC ([9]; ATCC9341, read-out: Minimum Inhibitory Concentration): 50 µg/mL (≈ 186 µM) | MIC ([10]; ATCC6633, read-out: Minimum Inhibitory Concentration): 12.5 µg/mL (≈ 46.4 µM) | MIC ([11]; NCTC10490, read-out: Minimum Inhibitory Concentration): > 200 µg/mL | MIC [12]: 25 µg/mL (≈ 92.8 µM) | MIC (Proteus vulgaris HX-19; HX19, read-out: Minimum Inhibitory Concentration): 6.25 µg/mL (≈ 23.2 µM) | MIC ([13]; IAM1184, read-out: Minimum Inhibitory Concentration): 100 µg/mL (≈ 371 µM) | MIC ([14]; IAM1264, read-out: Minimum Inhibitory Concentration): 50 µg/mL (≈ 186 µM) | MIC ([15]; Salmonella, 8006, read-out: Minimum Inhibitory Concentration): 6.25 µg/mL (≈ 23.2 µM) | MIC [16]: 12.5 µg/mL (≈ 46.4 µM) | MIC ([17]; IFO3849, read-out: Minimum Inhibitory Concentration): > 200 µg/mL | MIC (Proteus vulgaris OX-19; OX19, read-out: Minimum Inhibitory Concentration): 6.25 µg/mL (≈ 23.2 µM) | MIC [18]: 12.5 µg/mL (≈ 46.4 µM) | MIC (Enterobacter cloacae 963; Enterobacter cloacae, 963, read-out: Minimum Inhibitory Concentration): 200 µg/mL (≈ 743 µM) | MIC ([19]; IFO3445, read-out: Minimum Inhibitory Concentration): > 200 µg/mL | MIC ([20]; IAM4905, read-out: Minimum Inhibitory Concentration): 6.25 µg/mL (≈ 23.2 µM) | MIC ([21]; NIHJJC2, read-out: Minimum Inhibitory Concentration): 50 µg/mL (≈ 186 µM) | MIC ([22]; IFO6342, read-out: Minimum Inhibitory Concentration): 6.25 µg/mL (≈ 23.2 µM) | MIC (Salmonella typhi 901): 12.5 µg/mL (≈ 46.4 µM) | MIC ([23]; PCI602, read-out: Minimum Inhibitory Concentration): 3.13 µg/mL (≈ 11.6 µM)
